These results are taken from PubChem BioAssay AID2060903 (Molecular Pharmacology Branch, DTP, NCI, 2025).

The subject of this assay is 377384-186-R-J1-PDC complex spheroid viability. In words: Anticancer human tumor 377384-186-R-J1-PDC patient-derived pancreatic carcinoma cell line growth inhibition [RAS]. Conditions: for viability, T/C: stronger effect = lower value. The text has this: RAS pathway inhibitors in Combinations in Complex Spheroids
A high-throughput screen of multi-cell type tumor spheroids was designed to identify active combinations of RAS pathway inhibitors and targeted small molecules. Complex spheroids include a stromal component modeled by human endothelial cells (HUVEC) and fibroblasts modeled by human mesenchymal stem cells (MSCs). The concentration ranges selected for each drug and investigational agent were based upon clinically achievable concentrations if the clinical Cmax of the agent was known.
Compounds. The drugs and investigational agents: abemaciclib (NSC768073), cobimetinib (NSC768068), divarasib (GDC6063, NSC841802), docetaxel (NSC628503), GDC-1971 (RLY-1971, NSC841576), gemcitabine (NSC613327), inavolisib (NSC800729), ipatasertib (NSC767898), KB-0742 (NSC834161), MRTX-1133 (NSC836407), osimertinib (NSC779217), RMC-4630 (NSC839698), RMC-6236 (NSC851965), RMC-6291 (NSC852671), Ro-3306 (NSC812927), sapanisertib (NSC764658), SN-38 (NSC673596), staurosporine (NSC755774), SY5609 (NSC837396), and tovorafenib (DAY101, NSC766906), were obtained from the National Cancer Institute (NCI) Developmental Therapeutics Program Chemical Repository. The FDA-approved anticancer drug set is available from the NCI Developmental Therapeutics Program. […] The stock solutions were prepared in dimethyl sulfoxide (DMSO, Sigma-Aldrich, St. Louis, MO, cat. D2650) at 800-fold the tested concentration and stored at -70 degrees C prior to their use. All drugs and investigational agents were tested over a range starting from a high concentration at or near the clinical Cmax and decreasing in half-log increments. If the clinical Cmax for an agent had not been determined, the highest concentration tested was 10 microM.
Cell Culture. All cells were maintained in an incubator at 37 degrees C and 5% CO2 with 95% humidity. The PDC lines were cultured according to standard operating procedures established by the NCI PDMR. All PDCs were thawed and cultured in Matrigel-coated flasks prepared with a working solution of 1X Ham's F-12 nutrient mix, without supplementation (Invitrogen, Waltham, MA, cat. 11765054), 100 U/mL penicillin-streptomycin (Invitrogen, cat. 15140122), and 2.5% Matrigel (Corning Inc., Corning, NY, cat. 354248) for the first three passages. The 362531-283-R-J2-PDC and 782815-120-R-J1-PDC lines were cultured in 6C/Colon 1B media, which includes advanced DMEM/F-12 (Thermo Fisher Scientific, cat. 12634028), 10 mM HEPES (Thermo Fisher Scientific, cat. 15630080), 1X GlutaMAX supplement (Thermo Fisher Scientific, cat. 35050061), 0.1 mg/mL primocin (InvivoGen, San Diego, CA, cat. ant-pm-2), 10% defined fetal bovine serum, heat inactivated (HyClone Laboratories Inc., Logan, UT, cat. SH30070.03HI), 50% L-WRN conditioned media (ATCC, cat. CRL-3276), 1.25 mM N-Acetyl-L-cysteine (Sigma-Aldrich, cat. A9165), 10 mM nicotinamide (Sigma-Aldrich, cat. N0636), 1X B-27 supplement (Thermo Fisher Scientific, cat. 17504044), 1X N-2 supplement (Thermo Fisher Scientific, cat. 17502048), 50 ng/mL human EGF (Thermo Fisher Scientific, cat. PHG0311), and 10 microM Y-27632 dihydrochloride (Tocris Bioscience, cat. 1254). The K12877-001-R-J1-PDC line was cultured in 6I media, which includes all 6C/Colon 1B media plus 10 ng/mL human FGF-10 (PeproTech, cat. 100-26), 1 ng/mL human FGF-2 (PeproTech, cat. 100-18B), 1 µM prostaglandin E2 (Tocris Bioscience, cat. 2296), […] hydrocortisone (Sigma-Aldrich, cat. H4001), and […] bovine insulin (Sigma-Aldrich, cat. I6634). The K86415-001-R-J1-PDC line was cultured in 6D media, which includes all 6C/Colon 1B media components minus the L-WRN conditioned media. The 485176-168-R4-J1-PDC was cultured in PANC media, which includes all 6C/Colon 1B media plus 100 ng/mL human FGF-10 (PeproTech, cat. 100-26), 500 nM SB-431542 (Selleckchem, cat. S1067), and 10 nM gastrin (Tocris Bioscience, cat. 3006). […]

“And” between values parts separate entries of the source, which are not always exact repeats. Equal values may be shown once. Some results are limits rather than exact numbers.
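Note: spheroids exposed to compounds for seven days before readout.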

On to `CC(=O)OC12COC1CC(O)C1(C)C(=O)C(O)C3=C(C)C(OC(=O)C(O)C(NC(=O)OC(C)(C)C)c4ccccc4)CC(O)(C(OC(=O)c4ccccc4)C21)C3(C)C` (centres undefined), for which the viability, T/C by setting is: (compound 0.0316 µM) 9.48% [middle of 4 runs]; (compound 0.1 µM) 12% and 10.2% (2×) and 9.32%; (compound 0.316 µM) 11.3% [middle of 4 runs]; (compound 1 µM) 12.8% [middle of 4 runs]; (compound 3.16 µM) 14.2% [middle of 4 runs]; (compound 10 µM) 13.2% [middle of 4 runs]. In addition, the half-inhibitory concentration (IC50) (curve of compound) was less than 31.6 nM.

As to `CC(C)NCC(C(=O)N1CCN(c2ncnc3c2C(C)CC3O)CC1)c1ccc(Cl)cc1` (centres undefined), the viability, T/C was 92% [middle of 4 runs] (compound 0.1 µM); 75.2% [middle of 4 runs] (compound 0.316 µM); 63.2% [middle of 4 runs] (compound 1 µM); 51.9% [middle of 4 runs] (compound 3.16 µM); 36.2% [middle of 4 runs] (compound 10 µM). Also, the IC50 (curve of compound) was 2.58 µM [middle of 4 runs].

Regarding `CCC(CC)c1cc(NC2CCC(N)C2)n2nccc2n1` (centres undefined), the viability, T/C was 100% [middle of 4 runs] (compound 0.0316 µM); 105% [middle of 4 runs] (compound 0.1 µM); 105% [middle of 4 runs] (compound 0.316 µM); 3.17% [middle of 4 runs] (compound 3.16 µM); 4.82% [middle of 4 runs] (compound 10 µM). For the same molecule, for the setting “curve of compound”, the IC50 was 1.68 µM [middle of 4 runs].

For the molecule `Cc1nc(N2CCC3(CC2)COC(C)C3N)c(CO)nc1Sc1ccnc(N)c1Cl` (centres undefined), the viability, T/C (compound 0.0316 µM) is 92% [middle of 4 runs]; the viability, T/C (compound 0.1 µM) was 85.4% [middle of 4 runs]; the viability, T/C (compound 0.316 µM) is 83.3% [middle of 4 runs]; the viability, T/C (compound 1 µM) was 85.2% [middle of 4 runs]; the viability, T/C (compound 3.16 µM) is 84.6% [middle of 4 runs]; the viability, T/C (compound 10 µM) is 79% [middle of 4 runs]. Besides, the IC50 (curve of compound) was greater than 10000 nM.

`NC1c2ccccc2OC12CCN(c1cnc3c(N4CCCc5ncccc54)n[nH]c3n1)CC2` (centres undefined): the viability, T/C was 83.4% [middle of 4 runs] (compound 0.1 µM); 80.6% [middle of 4 runs] (compound 0.316 µM); 73% [middle of 4 runs] (compound 1 µM); 76.8% [middle of 4 runs] (compound 3.16 µM); 70% [middle of 4 runs] (compound 10 µM). For the same molecule, the IC50 (curve of compound) was greater than 10000 nM.

`C=CC(=O)Nc1cc(Nc2nccc(-c3cn(C)c4ccccc34)n2)c(OC)cc1N(C)CCN(C)C` + C#Cc1c(F)ccc2cc(O)cc(-c3ncc4c(N5CC6CCC(C5)N6)nc(OCC56CCCN5CC(F)C6)nc4c3F)c12: the IC50 was less than 3.16 nM (curve of first compound, second compound 0.0316 µM); less than 3.16 nM (curve of first compound, second compound 0.1 µM); less than 3.16 nM (curve of first compound, second compound 0.316 µM); less than 3.16 nM (curve of first compound, second compound 1 µM); less than 3.16 nM (curve of first compound, second compound 3.16 µM); less than 3.16 nM (curve of first compound, second compound 10 µM). For the same molecule, the viability, T/C (second compound 0.0316 µM, first compound 0.00316 µM) is 23.5%; the viability, T/C (second compound 0.0316 µM, first compound 0.01 µM) was 20.6%; the viability, T/C (second compound 0.0316 µM, first compound 0.0316 µM) is 15.2%; the viability, T/C (second compound 0.0316 µM, first compound 0.1 µM) was 11.2%; the viability, T/C (second compound 0.0316 µM, first compound 0.316 µM) was 3.98%; the viability, T/C (second compound 0.0316 µM, first compound 1 µM) was 2.32%. Further, the viability, T/C reads like this: (second compound 0.1 µM, first compound 0.00316 µM) 11.5%; (second compound 0.1 µM, first compound 0.01 µM) 8.96%; (second compound 0.1 µM, first compound 0.0316 µM) 5.18%; (second compound 0.1 µM, first compound 0.1 µM) 3.75%; (second compound 0.1 µM, first compound 0.316 µM) 2.22%; (second compound 0.1 µM, first compound 1 µM) 2.24%. Moreover, the viability, T/C (second compound 0.316 µM, first compound 0.00316 µM) is 8.47%; the viability, T/C (second compound 0.316 µM, first compound 0.01 µM) is 5.04%; the viability, T/C (second compound 0.316 µM, first compound 0.0316 µM) is 3.96%; the viability, T/C (second compound 0.316 µM, first compound 0.1 µM) is 2.43%; the viability, T/C (second compound 0.316 µM, first compound 0.316 µM) was 1.28%; the viability, T/C (second compound 0.316 µM, first compound 1 µM) is 1.33%. Also, the viability, T/C is 3.67% (second compound 1 µM, first compound 0.00316 µM); 2.76% (second compound 1 µM, first compound 0.01 µM); 2.37% (second compound 1 µM, first compound 0.0316 µM); 1.47% (second compound 1 µM, first compound 0.1 µM); 1.51% (second compound 1 µM, first compound 0.316 µM); 1.43% (second compound 1 µM, first compound 1 µM). Also, the viability, T/C runs as follows: (second compound 3.16 µM, first compound 0.00316 µM) 1.79%; (second compound 3.16 µM, first compound 0.01 µM) 1.63%; (second compound 3.16 µM, first compound 0.0316 µM) 1.82%; (second compound 3.16 µM, first compound 0.1 µM) 1.41%; (second compound 3.16 µM, first compound 0.316 µM) 1.37%; (second compound 3.16 µM, first compound 1 µM) 1.25%. The viability, T/C was 1.63% (second compound 10 µM, first compound 0.00316 µM); 1.14% (second compound 10 µM, first compound 0.01 µM); 1.21% (second compound 10 µM, first compound 0.0316 µM); 0.66% (second compound 10 µM, first compound 0.1 µM); 1.89% (second compound 10 µM, first compound 0.316 µM); 0.82% (second compound 10 µM, first compound 1 µM).
